Measured values: US12102607B2, “C5aR inhibitors for use in the treatment of chemotherapy-induced iatrogenic pain” (Dompe' Farmaceutici S.P.A., priority 2017, dated 2024)

Legend:
[1] = test system: paclitaxel-induced mechanical allodynia in male Balb/C mice; test: Paclitaxel-induced mechanical allodynia, Dynamic Plantar Aesthesiometer, DF3966A; type: in vivo; settings: 30 mg/kg/os twice daily day 1 to 14; days 3, 5, 7, 10 and 14
Method: (§1) For the experiments with DF3966A, animals were housed in the animal care facility of the Department of Pharmacy of the University of Naples, Italy, in a room with controlled temperature (22±1° C.), humidity (60±10%) and light (12 h per day); food and water were available ad libitum. All behavioural tests were performed between 9:00 AM and 5:00 PM, and the animals were used only once. Animal care and manipulations were conducted in conformity with International and National law and policies (EU Directive 2010/63/EU for animal experiments, ARRIVE guidelines and the Basel declaration including the 3R concept). The procedure reported here were approved by the Institutional Committee on the Ethics of Animal Experiments (CVS) of the University of Naples Federico II and by Ministero della Salute under protocol n. 2014-00884607.
(§2) The protocol used was performed according POLOMANO et al., 2001, adapted to mice. The animals received paclitaxel 4 mg/kg intraperitoneally (i.p.) for four alternate days (days 1, 3, 5, and 7). During treatment period, mechanical and cold allodynia were measured 4 hours after the injection of paclitaxel.
DF3966A was administrated 30 mg/kg/os from 1st at 14th day (twice daily; 8.00 am and 20.00 pm). […]
In DF3966A experiments, sensitivity to tactile stimulation was measured using the Dynamic Plantar Aesthesiometer (DPA, Ugo Basile, Italy). […]

[2] = test system: paclitaxel-induced cold allodynia in male Balb/C mice; test: Paclitaxel-induced cold allodynia, DF3966A; type: in vivo; settings: 30 mg/kg/os twice daily day 1 to 14; days 3, 5, 7, 10 and 14
Method: as §1
as §2, with “paclitaxel. […]” for “paclitaxel.”
In the same apparatus of von Frey test, and nearly 15 minutes after the mechanical test, was performed the acetone test. […] All movements as licking, flinching or lifting of paw were recorded with a chronometer in a total testing time of 2 minutes.

C[C@H](c1ccc(Nc2nc(C(F)(F)F)cs2)cc1)c1nnn[nH]1 [DF3966A, 1-N-[4-[(1R)-1-(1H-tetrazol-5-yl)ethyl]phenyl}-4-(trifluoromethyl)-11,3-thiazol-2-amine]
mechanical allodynia vs vehicle control animals [1]: significant reduction of mechanical allodynia | cold allodynia vs vehicle control animals [2]: significant reduction of cold allodynia
